According to US20260028365A1 (BIOGEN MA INC., priority 2022, published 2026):
Where a name gives a salt, the structure may show the parent alone.

Assays:
[1] = target: JH2 domain of human Tyk2 (Homo sapiens (Human), UniProt P29597); assay: JH2 Biochemical Assay (TR-FRET probe displacement); format: binding; details: JH2 domain of human Tyk2, TR-FRET probe displacement
[2] = target: Tyk2 (Homo sapiens (Human), UniProt P29597); assay: pSTAT4 Cell Assay (MSD, NK92 cells); format: cell-based; details: MSD
Tyk2, sequence (P29597 whole entry): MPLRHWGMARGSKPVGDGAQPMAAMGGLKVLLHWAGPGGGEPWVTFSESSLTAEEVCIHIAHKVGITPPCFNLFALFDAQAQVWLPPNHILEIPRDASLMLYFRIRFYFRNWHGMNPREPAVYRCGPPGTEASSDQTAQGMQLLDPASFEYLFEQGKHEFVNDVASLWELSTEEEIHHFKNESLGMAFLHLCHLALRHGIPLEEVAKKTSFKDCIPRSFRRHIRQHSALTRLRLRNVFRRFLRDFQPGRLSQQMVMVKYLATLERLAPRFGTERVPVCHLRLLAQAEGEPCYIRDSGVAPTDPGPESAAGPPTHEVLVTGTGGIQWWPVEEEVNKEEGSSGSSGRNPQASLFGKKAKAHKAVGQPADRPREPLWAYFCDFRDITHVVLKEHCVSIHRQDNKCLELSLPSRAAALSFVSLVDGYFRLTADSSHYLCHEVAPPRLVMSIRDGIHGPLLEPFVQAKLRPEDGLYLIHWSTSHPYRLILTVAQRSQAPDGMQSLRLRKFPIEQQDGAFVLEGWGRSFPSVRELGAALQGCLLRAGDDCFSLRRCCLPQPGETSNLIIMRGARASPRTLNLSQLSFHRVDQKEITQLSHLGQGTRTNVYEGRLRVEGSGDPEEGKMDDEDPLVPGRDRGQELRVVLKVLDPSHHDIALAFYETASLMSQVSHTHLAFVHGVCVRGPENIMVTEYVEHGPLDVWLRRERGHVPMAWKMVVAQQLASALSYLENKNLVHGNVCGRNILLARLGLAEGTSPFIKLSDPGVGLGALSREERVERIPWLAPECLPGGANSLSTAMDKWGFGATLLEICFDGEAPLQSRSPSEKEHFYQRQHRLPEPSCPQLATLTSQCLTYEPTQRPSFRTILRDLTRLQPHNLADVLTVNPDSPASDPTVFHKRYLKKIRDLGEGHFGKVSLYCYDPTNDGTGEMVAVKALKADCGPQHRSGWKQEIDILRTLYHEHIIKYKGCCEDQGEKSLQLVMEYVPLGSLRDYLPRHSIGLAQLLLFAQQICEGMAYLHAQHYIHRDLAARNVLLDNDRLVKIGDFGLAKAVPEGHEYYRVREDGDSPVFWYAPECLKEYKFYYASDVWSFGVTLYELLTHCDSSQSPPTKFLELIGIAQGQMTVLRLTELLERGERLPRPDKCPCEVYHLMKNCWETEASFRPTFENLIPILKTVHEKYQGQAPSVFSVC

JH2 domain of human Tyk2, sequence (P29597 575-876): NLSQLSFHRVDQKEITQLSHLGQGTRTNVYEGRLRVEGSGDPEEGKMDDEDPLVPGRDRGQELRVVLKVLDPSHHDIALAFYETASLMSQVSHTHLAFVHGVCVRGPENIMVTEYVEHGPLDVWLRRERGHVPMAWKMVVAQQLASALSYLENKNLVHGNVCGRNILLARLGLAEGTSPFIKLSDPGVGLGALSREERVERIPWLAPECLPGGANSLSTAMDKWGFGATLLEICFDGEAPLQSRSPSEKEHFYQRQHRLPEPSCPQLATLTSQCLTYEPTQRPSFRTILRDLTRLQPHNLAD

`CCOc1cnc(NC(C)=O)cc1Nc1cc(OC2CC(F)C2)nc(C(C)(F)F)n1` (centres unmarked) [Example 457, N-(4-((2-(1,1-difluoroethyl)-6-(3-fluorocyclobutoxy)pyrimidin-4-yl)amino)-5-ethoxypyridin-2-yl)acetamide trifluoroacetate] showed an IC50 [1] of no more than 10 nM and an IC50 [2] of 10 to 100 nM.
Molecule `CCOc1cnc(NC(C)=O)cc1Nc1cc(O[C@H]2C[C@@H](F)C2)nc(C(C)(F)F)n1` [Example 458, N-(4-((2-(1,1-difluoroethyl)-6-((1s,3s)-3-fluorocyclobutoxy)pyrimidin-4-yl)amino)-5-ethoxypyridin-2-yl)acetamide] has an IC50 [1] of no more than 10 nM and an IC50 [2] of no more than 10 nM.
Molecule `CCOc1cnc(NC(C)=O)cc1Nc1cc(OC2CC(F)(F)C2)nc(C(C)(F)F)n1` [Example 459, N-(4-((6-(3,3-difluorocyclobutoxy)-2-(1,1-difluoroethyl)pyrimidin-4-yl)amino)-5-ethoxypyridin-2-yl)acetamide] has an IC50 [1] of no more than 10 nM and an IC50 [2] of 10 to 100 nM.
With `COc1cnc(NC(C)=O)cc1Nc1cc(OC2CC(F)(F)C2)nc(C(C)(F)F)n1` [Example 460, N-(4-((6-(3,3-difluorocyclobutoxy)-2-(1,1-difluoroethyl)pyrimidin-4-yl)amino)-5-methoxypyridin-2-yl)acetamide] the IC50 [1] was no more than 10 nM and the IC50 [2] was 10 to 100 nM.
For `COc1cnc(NC(C)=O)cc1Nc1cc(O[C@H]2C[C@@H](F)C2)nc(C(C)(F)F)n1` [Example 461, N-(4-((2-(1,1-difluoroethyl)-6-((1s,3s)-3-fluorocyclobutoxy)pyrimidin-4-yl)amino)-5-methoxypyridin-2-yl)acetamide], the IC50 [1] was no more than 10 nM and the IC50 [2] was 10 to 100 nM.
With `CCOc1cnc(NC(C)=O)cc1Nc1cc(OC2CCC2)nc(C(C)(F)F)n1` [Example 462, N-(4-((6-cyclobutoxy-2-(1,1-difluoroethyl)pyrimidin-4-yl)amino)-5-ethoxypyridin-2-yl)acetamide] the IC50 [1] was no more than 10 nM and the IC50 [2] was no more than 10 nM.
In the case of `CCOc1cnc(NC(C)=O)cc1Nc1cc(OC2CC(C#N)C2)nc(C(C)(F)F)n1` (centres unmarked) [Example 463, N-(4-((6-(3-cyanocyclobutoxy)-2-(1,1-difluoroethyl)pyrimidin-4-yl)amino)-5-ethoxypyridin-2-yl)acetamide], the IC50 [1] is reported as no more than 10 nM and the IC50 [2] is reported as no more than 10 nM.
With `CCOc1cnc(NC(C)=O)cc1Nc1cc(OC2CC(C)C2)nc(C(C)(F)F)n1` (centres unmarked) [Example 464, N-(4-((2-(1,1-difluoroethyl)-6-(3-methylcyclobutoxy)pyrimidin-4-yl)amino)-5-ethoxypyridin-2-yl)acetamide] the IC50 [1] was no more than 10 nM and the IC50 [2] was no more than 10 nM.
`CC(=O)Nc1cc(Nc2cc(C)nc(C(C)(F)F)n2)c(OCC2CC(F)(F)C2)cn1` [Example 465, N-(5-((3,3-difluorocyclobutyl)methoxy)-4-((2-(1,1-difluoroethyl)-6-methylpyrimidin-4-yl)amino)pyridin-2-yl)acetamide] showed an IC50 [1] of no more than 10 nM and an IC50 [2] of 10 to 100 nM.
`CC(=O)Nc1cc(Nc2cc(C)nc(C(C)(F)F)n2)c(OCc2cccc(F)c2)cn1` [Example 466, N-(4-((2-(1,1-difluoroethyl)-6-methylpyrimidin-4-yl)amino)-5-((3-fluorobenzyl)oxy)pyridin-2-yl)acetamide] gave an IC50 [1] of no more than 10 nM and an IC50 [2] of 10 to 100 nM.
Work on `CC(=O)Nc1cc(Nc2cc(C)nc(C(C)(F)F)n2)c(OCc2ccc(F)c(F)c2)cn1` [Example 467, N-(5-((3,4-difluorobenzyl)oxy)-4-((2-(1,1-difluoroethyl)-6-methylpyrimidin-4-yl)amino)pyridin-2-yl)acetamide] yielded an IC50 [1] of no more than 10 nM and an IC50 [2] of 10 to 100 nM.
Molecule `CC(=O)Nc1cc(Nc2cc(C)nc(C(C)(F)F)n2)c(OCc2cccnc2C)cn1` [Example 469, N-(4-((2-(1,1-difluoroethyl)-6-methylpyrimidin-4-yl)amino)-5-((2-methylpyridin-3-yl)methoxy)pyridin-2-yl)acetamide] has an IC50 [1] of no more than 10 nM and an IC50 [2] of 100 to 1000 nM.
`CC(=O)Nc1cc(Nc2cc(C)nc(C(C)(F)F)n2)c(OCc2cnccc2C)cn1` [Example 470, N-(4-((2-(1,1-difluoroethyl)-6-methylpyrimidin-4-yl)amino)-5-((4-methylpyridin-3-yl)methoxy)pyridin-2-yl)acetamide] gave an IC50 [1] of no more than 10 nM and an IC50 [2] of 100 to 1000 nM.
In the case of `CC(=O)Nc1cc(Nc2cc(C)nc(C(C)(F)F)n2)c(OCc2ncccc2C)cn1` [Example 471, N-(4-((2-(1,1-difluoroethyl)-6-methylpyrimidin-4-yl)amino)-5-((3-methylpyridin-2-yl)methoxy)pyridin-2-yl)acetamide], the IC50 [1] is reported as 10 to 100 nM and the IC50 [2] is reported as 100 to 1000 nM.
`COc1cccnc1COc1cnc(NC(C)=O)cc1Nc1cc(C)nc(C(C)(F)F)n1` [Example 472, N-(4-((2-(1,1-difluoroethyl)-6-methylpyrimidin-4-yl)amino)-5-((3-methoxypyridin-2-yl)methoxy)pyridin-2-yl)acetamide] was tested, and the IC50 [1] was 10 to 100 nM and the IC50 [2] was 100 to 1000 nM.
In the case of `CC(=O)Nc1cc(Nc2cc(C)nc(C(C)(F)F)n2)c(OCc2ccncc2)cn1` [Example 473, N-(4-((2-(1,1-difluoroethyl)-6-methylpyrimidin-4-yl)amino)-5-((pyridin-4-yl)methoxy)pyridin-2-yl)acetamide], the IC50 [1] is reported as no more than 10 nM and the IC50 [2] is reported as 10 to 100 nM.
In the case of `CC(=O)Nc1cc(Nc2cc(C)nc(C(C)(F)F)n2)c(OCc2cncc(F)c2)cn1` [Example 474, N-(4-((2-(1,1-difluoroethyl)-6-methylpyrimidin-4-yl)amino)-5-((5-fluoropyridin-3-yl)methoxy)pyridin-2-yl)acetamide], the IC50 [1] is reported as no more than 10 nM and the IC50 [2] is reported as 10 to 100 nM.
Work on `CC(=O)Nc1cc(Nc2cc(C)nc(C(C)(F)F)n2)c(OCc2ccn(C)n2)cn1` [Example 475, N-(4-((2-(1,1-difluoroethyl)-6-methylpyrimidin-4-yl)amino)-5-((1-methyl-1H-pyrazol-3-yl)methoxy)pyridin-2-yl)acetamide] yielded an IC50 [1] of no more than 10 nM and an IC50 [2] of 10 to 100 nM.
`CC(=O)Nc1cc(Nc2cc(C)nc(C(C)(F)F)n2)c(OCCc2ccccn2)cn1` [Example 476, N-(4-((2-(1,1-difluoroethyl)-6-methylpyrimidin-4-yl)amino)-5-(2-(pyridin-2-yl)ethoxy)pyridin-2-yl)acetamide] showed an IC50 [1] of no more than 10 nM and an IC50 [2] of 10 to 100 nM.
`CC(=O)Nc1cc(Nc2cc(C)nc(C(C)(F)F)n2)c(OC2CCOC2)cn1` (centres unmarked) [Example 477, N-(4-((2-(1,1-difluoroethyl)-6-methylpyrimidin-4-yl)amino)-5-((tetrahydrofuran-3-yl)oxy)pyridin-2-yl)acetamide] was tested, and the IC50 [1] was no more than 10 nM and the IC50 [2] was 10 to 100 nM.
With `CC(=O)Nc1cc(Nc2cc(C)nc(C(C)(F)F)n2)c(OC2CCN(C)C2)cn1` (centres unmarked) [Example 478, N-(4-((2-(1,1-difluoroethyl)-6-methylpyrimidin-4-yl)amino)-5-((1-methylpyrrolidin-3-yl)oxy)pyridin-2-yl)acetamide] the IC50 [1] was no more than 10 nM and the IC50 [2] was 100 to 1000 nM.
`CC(=O)Nc1cc(Nc2cc(C)nc(C(C)(F)F)n2)c(OCC2CCCN2C)cn1` (centres unmarked) [Example 479, N-(4-((2-(1,1-difluoroethyl)-6-methylpyrimidin-4-yl)amino)-5-((1-methylpyrrolidin-2-yl)methoxy)pyridin-2-yl)acetamide] gave an IC50 [1] of no more than 10 nM and an IC50 [2] of 100 to 1000 nM.
`CC(=O)Nc1cc(Nc2cc(C)nc(C(C)(F)F)n2)c(OCC2CCCO2)cn1` (centres unmarked) [Example 481, N-(4-((2-(1,1-difluoroethyl)-6-methylpyrimidin-4-yl)amino)-5-((tetrahydrofuran-2-yl)methoxy)pyridin-2-yl)acetamide] showed an IC50 [1] of no more than 10 nM and an IC50 [2] of 10 to 100 nM.
With `CC(=O)Nc1cc(Nc2cc(C)nc(C(C)(F)F)n2)c(OCCOC(C)C)cn1` [Example 482, N-(4-((2-(1,1-difluoroethyl)-6-methylpyrimidin-4-yl)amino)-5-(2-isopropoxyethoxy)pyridin-2-yl)acetamide] the IC50 [1] was no more than 10 nM and the IC50 [2] was 10 to 100 nM.
In the case of `CC(=O)Nc1cc(Nc2cc(C)nc(C(C)(F)F)n2)c(OCC2(F)COC2)cn1` [Example 483, N-(4-((2-(1,1-difluoroethyl)-6-methylpyrimidin-4-yl)amino)-5-((3-fluorooxetan-3-yl)methoxy)pyridin-2-yl)acetamide], the IC50 [1] is reported as no more than 10 nM and the IC50 [2] is reported as 10 to 100 nM.
`CC(=O)Nc1cc(Nc2cc(C)nc(C(C)(F)F)n2)c(OCc2ccc3c(c2)OCO3)cn1` [Example 484, N-(5-(benzo[d][1,3]dioxol-5-ylmethoxy)-4-((2-(1,1-difluoroethyl)-6-methylpyrimidin-4-yl)amino)pyridin-2-yl)acetamide] showed an IC50 [1] of no more than 10 nM and an IC50 [2] of 10 to 100 nM.
`CCOc1cnc(NC(C)=O)cc1Nc1cc(NC)nc(C(C)(F)F)n1` [Example 485, N-(4-((2-(1,1-difluoroethyl)-6-(methylamino)pyrimidin-4-yl)amino)-5-ethoxypyridin-2-yl)acetamide] gave an IC50 [1] of no more than 10 nM and an IC50 [2] of 10 to 100 nM.
`CC(=O)Nc1cc(Nc2cc(OC3CC3)nc(C(C)(F)F)n2)c(OCc2ccccc2)cn1` [Example 487, N-(5-(benzyloxy)-4-((6-cyclopropoxy-2-(1,1-difluoroethyl)pyrimidin-4-yl)amino)pyridin-2-yl)acetamide] showed an IC50 [1] of no more than 10 nM and an IC50 [2] of no more than 10 nM.
`CCOc1cnc(NC(C)=O)cc1Nc1ccc(-c2ccn(C)n2)c(OC)n1` [Example 491, N-(5-ethoxy-4-((6-methoxy-5-(1-methyl-1H-pyrazol-3-yl)pyridin-2-yl)amino)pyridin-2-yl)acetamide] was tested, and the IC50 [1] was 10 to 100 nM and the IC50 [2] was no less than 1000 nM.
`COC(C)(C)COc1cnc(NC(C)=O)cc1Nc1cc(C)nc(C(C)(F)F)n1` [Example 492, N-(4-((2-(1,1-difluoroethyl)-6-methylpyrimidin-4-yl)amino)-5-(2-methoxy-2-methylpropoxy)pyridin-2-yl)acetamide] was tested, and the IC50 [1] was no more than 10 nM and the IC50 [2] was 10 to 100 nM.
With `COC1(COc2cnc(NC(C)=O)cc2Nc2cc(C)nc(C(C)(F)F)n2)CCC1` [Example 493, N-(4-((2-(1,1-difluoroethyl)-6-methylpyrimidin-4-yl)amino)-5-((1-methoxycyclobutyl)methoxy)pyridin-2-yl)acetamide] the IC50 [1] was no more than 10 nM and the IC50 [2] was 10 to 100 nM.
